Data as given in PubChem BioAssay AID179 (DTP/NCI, 2004).
Active and inactive are the calls of the source.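 How the source made its calls: active means compounds giving half or more protection of infected cells from virus-caused growth loss, again on retest; inactive means the rest.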

System: CEM cells HIV-1 protection, formazan growth assay
Assay: NCI AIDS Antiviral Assay
Settings: for IC50: measured here: growth of uninfected CEM cells
In short: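 Five concentrations of each compound were applied to infected and uninfected human CEM cells. Protection from HIV-1 was judged from growth measured with a soluble formazan assay.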

Row | Structure (SMILES) | EC50 [µM] | IC50 [µM] | outcome
1 | Cc1nc2sccn2c1C(=O)NN | > 1260 | 912 | 
2 | Cc1cn(C2CC(O)C(CO)O2)c(=O)n2nnnc12 (stereo not given) |  |  | inactive
3 | CN(C(=O)C12C3C4C1C1C2C3C41C(=O)N(C)C(C)(C)C)C(C)(C)C (stereo not given) | > 30.2 | > 30.2 | 
4 | O=C1C(=O)c2ccccc2C(O)=C1CC=C(Cl)Cl | > 126 | 0.955 | 
5 | CN(C)c1ccc(N=C2C=CC(=O)c3ccccc32)cc1 | > 20 | 1.23 | 
6 | COc1ccc(N2C(=O)C3c4[nH]c5ccccc5c4C4CC(C)(C)CC(C)(C)C4C3C2=O)cc1 (stereo not given) | > 4.37 | > 4.37 | 
7 | COc1ccc2c3c([nH]c2c1[N+](=O)[O-])C(C)N(C)CC3 (stereo not given) |  |  | inactive
8 | COc1cc(N(C)C)c(OC)cc1C=C1C=CC=C1 | > 977 | 0.407 | 
9 | C#CC(C)(C)Oc1ccc2c(=O)c(-c3ccccc3)coc2c1 | > 200 |  | 
10 | O=C(CC1(O)C(=O)Nc2c(Cl)cc(Cl)cc21)c1ccco1 (stereo not given) | > 398 | 83.2 | 
11 | O=S1(=O)OCCOS(=O)(=O)C1(Cl)Cl | > 50.1 | > 50.1 | 
12 | CCCCCCCCCCCc1nnc(N)o1 |  |  | inactive
13 | O=[N+]([O-])c1ccc(N2CCOS(=O)OCC2)cc1 | > 200 | > 200 | 
14 | O=C1CC[C@@H](S(=O)(=O)c2ccccc2)[C@H](/C=C/c2ccccc2)O1 |  |  | inactive
15 | O=NC1C(Cl)C2CC1C1COCC21 (stereo not given) | > 1230 | > 1230 | 
16 | Cc1ccc(CC(Cc2ccccc2C)C(=O)O)c(C(=O)O)c1 (stereo not given) | > 200 | > 200 | 
17 | O=C1C(c2ccccc2)=C(c2ccccc2)C(c2ccccc2)/C1=C1\C(=O)C(c2ccccc2)=C(c2ccccc2)C1c1ccccc1 (stereo not given) |  |  | inactive
18 | CCOP(=O)(OCC)OC1CC(n2cc(C)c(=O)n(C)c2=O)OC1CO[Si](C)(C)C(C)(C)C (stereo not given) | > 200 | 107 | 
19 | CCN(CC)CCNC(=O)C(O)(c1ccccc1)c1ccccc1 | > 200 | > 200 | 
20 | CCOC(=O)/C(=C\c1cccc(Br)c1)C(C)=O | > 229 | 47.9 | 
21 | CN1c2ccccc2N(C)C23N(C)c4ccccc4N(C)C12N(C)c1ccccc1N3C (stereo not given) | > 43.7 | > 43.7 | 
22 | NCCSSc1ccc([N+](=O)[O-])cc1 |  |  | inactive
23 | COc1ccc(-c2cn3c(nc4ccccc43)c(C)n2)cc1 | > 200 | > 200 | 

Row | Structure (SMILES) | EC50 [µM] | IC50 [µM] | outcome
24 | Cc1nn(C(=O)c2ccccc2O)c2c1C(c1ccccc1O)SC(N)=N2 (stereo not given) | > 2 | 0.933 | 
25 | CCc1n[nH]c(=O)n1-n1c(C)ccc1C | > 200 | > 200 | 
26 | CCOC(=O)C1(C)CCC(C(C(=O)O)C(=O)O)CC1=O (stereo not given) |  |  | inactive
27 | O=C(N=C1[Se]C(=Nc2ccccc2)C(=Nc2ccccc2)N1c1ccccc1)c1ccccc1 | > 200 | 107 | 
28 | O=C(CC1C(=O)Nc2ccccc2S1=O)Nc1ccccc1 (stereo not given) | > 22.9 | > 22.9 | 
29 | COc1ccc(CN2CCCN(Cc3ccc(OC)cc3)C2c2ccccc2O)cc1 | > 200 | 50.1 | 
30 | CN(C)c1cc(CNCCc2cnc[nH]2)nc(CNCCc2cnc[nH]2)c1 | > 200 | 12.3 | 
31 | O=C(O)[C@H](Cc1ccccc1)NCCN1CCC[C@H]1C(=O)O | > 200 | > 200 | 
32 | COc1cc2c(cc1OC)C1(c3ccccc3)ON=C(c3ccccc3)N1CS2 (stereo not given) | > 9.33 | > 9.33 | 
33 | CC1COS(=O)(=O)CS(=O)(=O)O1 (stereo not given) | > 1150 | > 1150 | 
34 | CC(C)C(Nc1c2ccccc2[n+](C)c2ccccc12)C(=O)O (stereo not given) |  |  | inactive
35 | CCc1ccc2nccc(NCCCN(C)C)c2c1[N+](=O)[O-] | > 200 | 87.1 | 
36 | CN(C)c1ccc(/C=C2/Oc3ccc(Cl)cc3C2=O)cc1 | > 4.79 | > 4.79 | 
37 | Cc1ccc(S(=O)(=O)N(CCNC(=O)c2cccc(O)c2O)c2cc3c4c(c2)Oc2cccc5c2C4(C)c2c(cccc2O3)O5)cc1 | > 200 | 10.7 | 
38 | CCOC(=O)c1ncn2c1[nH]c(=O)c1ccccc12 | > 7.41 | > 7.41 | 
39 | C/C(CN1C(=O)c2ccccc2C1=O)=N\NS(=O)(=O)c1ccc(Cl)cc1 | > 457 | > 457 | 
40 | COc1cc(OC)c(C(=O)[O][Sn]([c]2ccccc2)([c]2ccccc2)[c]2ccccc2)cc1OC | > 200 | 0.0631 | 
41 | c1cc(-c2cscc2-c2ccsc2)cs1 | > 200 | 110 | 
42 | CCO/C=N/c1[nH]c(C)c(Cc2ccccc2)c1C#N | > 50.1 | > 50.1 | 
43 | CCCCc1cc(=O)oc2c3c(c4c(c12)OC(C)(C)CC4)O[C@@H](C)[C@H](C)[C@@H]3O | 2.69 | 10.5 | 
44 | Nc1c(Cl)cc(Cl)cc1C(=O)O | > 200 | 195 | 
45 | CC(=O)n1c(=O)c2cc3c(=O)n(-c4cccc(C#N)c4)c(=O)c3cc2c1=O |  |  | inactive
